Source: PMC13114161 (Antibiotics, 2026)
Values after ≈ are worked out from the molar mass of the structure shown. Where two headings read alike, the source gives them in different places.

Columns and labels:
Aqueous solubility = assay type: physicochemical; details: system solution (SS), pH 7.4, aqueous buffer, kinetic from dmso stock
Procedure: The aqueous solubility of TXA11114 was evaluated in system solution (SS) at pH 7.4. Known concentrations of TXA11114, prepared as DMSO stock solutions, were spiked into SS and incubated for 6 h at room temperature with constant shaking (250 rpm). Caffeine and diethylstilbestrol (DES) were used as positive controls. […] Aliquots (500 µL) of diluted test and control compounds were dispensed into 96-deep-well plates in triplicate, sealed, and incubated as described above. Following incubation, 300 µL samples were withdrawn and filtered using 0.22 µm filter plates. Optical density at λ_max was measured using a UV spectrophotometer.

in vivo = details: female, CD-1, mouse, iv
Procedure: Thus, the safety and tolerability of TXA11114 was determined to find an optimum dosing capability. The maximum tolerated dose (MTD) of TXA11114 was assessed in female mice (CD-1, 6–8 weeks old) at the University of North Texas Health Science Center (UNTHSC). TXA11114 was administered IV to groups of three female mice. Mice were administered TXA11114 in the range 30–240 mg/kg (IV bolus). […] As doses are tolerated (not resulting in effects such as mortality, convulsions, or other severe morbidity), they are increased. Survival and general observations as to the tolerability of the administered dose started immediately and continued for a period of 48 h after each dose was recorded.

[1] = test system: multidrug-resistant P. aeruginosa clinical isolates from Walter Reed Army Hospital; test: Levofloxacin MIC potentiation, WRAIR MRSN isolates; assay type: cell-based, Pseudomonas aeruginosa; details: Pseudomonas aeruginosa
Procedure: (§1) MIC assays for potentiation of antimicrobial activity against P. aeruginosa were performed as described previously.

[2] = test system: P. aeruginosa ATCC 27853 ompH mutants EPIR32, EPIR36, EPIR38; test: microbe, parasite or virus in culture; assay type: cell-based, Pseudomonas aeruginosa; details: Pseudomonas aeruginosa
Procedure: as §1

P. aeruginosa ATCC 27853 [3] = assay type: cell-based, Pseudomonas aeruginosa; details: ATCC 27853; levofloxacin 4× MIC (4 μg/mL) alone
Procedure: OmpH is a homologous periplasmic chaperone that binds newly synthesized, unfolded outer membrane proteins (OMPs) and delivers them to the outer membrane for assembly by the BAM machinery, thereby preventing aggregation and facilitating proper membrane insertion.
(§2) Frequency-of-resistance studies were carried out as described previously.

[4] = test system: P. aeruginosa CDC AR-0232, AR-0248, AR-0249; assay type: cell-based, Pseudomonas aeruginosa
Procedure: as §2

P. aeruginosa ATCC 27853 [5] = test: Neutropenic murine lung infection model; assay type: in vivo, CD-1 mice; details: alone or with TXA11114 30 mg/kg IV QID; for Mean Log10 CFU (lung): +24 hr
Procedure: For the lung infection model, mice were anesthetized by IP injection of 0.15 mL of a ketamine (40 mg/kg) + xylazine (6 mg/kg) mixture and inoculated intranasally (IN) with 0.05 mL of a 4 × 10^8 CFU/mL bacterial suspension applied dropwise to the external nares. Two hours post-infection, mice received test articles IV (EPIs) or SC (levofloxacin). At 2 h or 24 h post-infection, mice were euthanized by CO2 asphyxiation, and lungs were aseptically removed, placed in 2 mL sterile PBS, and homogenized using the same procedure described above. Homogenates were serially diluted and plated (8 µL spots) onto BHI-charcoal and citrate agar, incubated overnight at 37 °C, and colonies were counted the following day.

NC[C@@H]1CN[C@H](CNC(=O)c2cc3ccc(-c4ccc(F)cc4)cc3[nH]2)C1 [TXA09155]
solubility at 6 h (Aqueous solubility): 155 ± 3 µM (≈ 56.8 µg/mL) | MTD at 48 h (in vivo): 30 mg/kg

C[C@H]1COc2c(N3CCN(C)CC3)c(F)cc3c(=O)c(C(=O)O)cn1c23 [Levofloxacin, levofloxacin]
MIC ([1]; read-out: Levofloxacin MIC alone across panel, 20 MRSN isolates): ≥ 8 µg/mL | MIC ([1]; read-out: Levofloxacin MIC, No EPI, MRSN #994): 16 µg/mL | MIC ([1]; read-out: Levofloxacin MIC, No EPI, MRSN #1344): 8 µg/mL | MIC ([1]; read-out: Levofloxacin MIC, No EPI, MRSN #3587): 8 µg/mL | MIC ([1]; read-out: Levofloxacin MIC, No EPI, MRSN #3705): 8 µg/mL | MIC ([1]; read-out: Levofloxacin MIC, No EPI, MRSN #5498): 32 µg/mL | MIC ([1]; read-out: Levofloxacin MIC, No EPI, MRSN #5519): 64 µg/mL | MIC ([1]; read-out: Levofloxacin MIC, No EPI, MRSN #5539): 16 µg/mL | MIC ([1]; read-out: Levofloxacin MIC, No EPI, MRSN #6220): 128 µg/mL | MIC ([1]; read-out: Levofloxacin MIC, No EPI, MRSN #6241): 8 µg/mL | MIC ([1]; read-out: Levofloxacin MIC, No EPI, MRSN #6678): 32 µg/mL | MIC ([1]; read-out: Levofloxacin MIC, No EPI, MRSN # 6695): 8 µg/mL | MIC ([1]; read-out: Levofloxacin MIC, No EPI, MRSN #8130): 16 µg/mL | MIC ([1]; read-out: Levofloxacin MIC, No EPI, MRSN #8139): 8 µg/mL | MIC ([1]; read-out: Levofloxacin MIC, No EPI, MRSN #8912): 16 µg/mL | MIC ([1]; read-out: Levofloxacin MIC, No EPI, MRSN #8914): 16 µg/mL | MIC ([1]; read-out: Levofloxacin MIC, No EPI, MRSN #8915): 128 µg/mL | MIC ([1]; read-out: Levofloxacin MIC, No EPI, MRSN #14981): 16 µg/mL | MIC ([1]; read-out: Levofloxacin MIC, No EPI, MRSN #15566): 8 µg/mL | MIC ([1]; read-out: Levofloxacin MIC, No EPI, MRSN #16344): 8 µg/mL | MIC ([1]; read-out: Levofloxacin MIC, No EPI, MRSN #369569): 32 µg/mL | MIC ([2]; ATCC27853, EPIR32): 0.25 µg/mL | MIC ([2]; ATCC27853, EPIR38): 0.5 µg/mL | Frequency of Resistance (P. aeruginosa ATCC 27853 [3]): 3.80 × 10^−8 | Frequency of Resistance ([4]; CDC AR-0232, levofloxacin 4× MIC (32 μg/mL) alone): 1.68 × 10^−8 | Frequency of Resistance ([4]; CDC AR-0248, levofloxacin 4× MIC (64 μg/mL) alone): 8.64 × 10^−8 | Frequency of Resistance ([4]; CDC AR-0249, levofloxacin 4× MIC (256 μg/mL) alone): 2.15 × 10^−8 | Mean Log10 CFU (lung) (P. aeruginosa ATCC 27853 [5]; levofloxacin 15 mg/kg SC QID): 5.86 log10 CFU | Mean Log10 CFU (lung) (P. aeruginosa ATCC 27853 [5]; levofloxacin 30 mg/kg SC QID): 3.98 log10 CFU | Mean Log10 CFU Change vs +2 hr Control, Δlog10 (treatment-baseline), lung (P. aeruginosa ATCC 27853 [5]; levofloxacin 15 mg/kg SC QID): 1.27 log10 CFU | Mean Log10 CFU Change vs +24 hr Control, lung (P. aeruginosa ATCC 27853 [5]; levofloxacin 15 mg/kg SC QID): 3.03 log10 CFU | Reduction of lung CFU at 24 h post-infection (P. aeruginosa ATCC 27853 [5]; levofloxacin 30 mg/kg SC QID): 0.61 log10 CFU
